Columns and labels:
Assay type in all cases: cell-based
[1] = test system: T-47D cells; assay: Inhibition of cell proliferation in T-47D cells (CCK-8); settings: 6 days treatment, CCK-8 cell viability
Method in brief: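 Viability by CCK-8 after a 6-day, 37 °C/5% CO2 exposure of T-47D cells (3,000/well, RPMI-1640 + 10% FBS) to graded PROTAC concentrations. Inhibition rates gave the IC50.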

[2] = test system: MCF-7 cells; assay: Inhibition of cell proliferation in MCF-7 cells (CCK-8); settings: MCF-7 cell proliferation, 6 days treatment
Method in brief: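 IC50 from CCK-8 viability-based inhibition after 6-day treatment of MCF-7 cells (800 cells/well, 10% FBS DMEM, 37 °C, 5% CO2) with serially varied compound concentrations.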

[3] = target: T1, ERα (Homo sapiens, UniProt P03372); assay: ERα degradation in T-47D cells (Western blot); settings: 4 hours
T1 sequence (P03372 1-595): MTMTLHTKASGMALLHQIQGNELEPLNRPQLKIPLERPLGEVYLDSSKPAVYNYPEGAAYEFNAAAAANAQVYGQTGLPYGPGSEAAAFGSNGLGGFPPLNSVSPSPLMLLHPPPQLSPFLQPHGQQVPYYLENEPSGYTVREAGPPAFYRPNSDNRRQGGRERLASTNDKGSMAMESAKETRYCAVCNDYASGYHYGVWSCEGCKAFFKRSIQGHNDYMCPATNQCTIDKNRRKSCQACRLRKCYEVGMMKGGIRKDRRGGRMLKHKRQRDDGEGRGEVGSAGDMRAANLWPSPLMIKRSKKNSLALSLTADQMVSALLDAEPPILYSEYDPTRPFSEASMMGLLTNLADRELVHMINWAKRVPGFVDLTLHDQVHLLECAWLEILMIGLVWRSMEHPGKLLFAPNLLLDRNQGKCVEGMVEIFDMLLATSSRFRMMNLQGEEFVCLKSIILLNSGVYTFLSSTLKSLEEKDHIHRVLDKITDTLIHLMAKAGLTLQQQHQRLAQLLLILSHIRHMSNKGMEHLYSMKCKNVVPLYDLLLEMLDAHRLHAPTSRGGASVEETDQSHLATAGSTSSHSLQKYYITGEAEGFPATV
Method in brief: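 ERα was quantified by immunoblot of RIPA lysates (20 µg total protein), normalised to an internal reference band, and degradation was expressed against control. Lysates came from T-47D cells plated at 3×10^5 cells/well and dosed 4 hours at 37°C with compound at 0.15-1000 nM final concentration.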

[4] = target: T1, ERα; assay: ERα degradation in MCF-7 cells (Western blot); design: host or cells: MCF-7; settings: 4 hours
Method in brief: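 ERα degradation was quantified by immunoblot densitometry, ERα signal divided by internal-reference signal and compared with control. Compounds were applied to MCF-7 cells for 4 hours at final concentrations of 0.15–1000 nM, with 20 µg total protein loaded per lane.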

Compound | IC50 ([1]; Homo sapiens, T47D, 144 h) [nM] | IC50 [2] [nM] | Degradation rate of ERα in T-47D cells (%) ([3]; 1nM) | Degradation rate of ERα in T-47D cells (%) ([3]; 10nM) | Degradation rate of ERα in MCF-7 cells (%) ([4]; 1nM) | Degradation rate of ERα in MCF-7 cells (%) ([4]; 10nM) | IC50 [1] [nM]
O=C1CC[C@H](NC(=O)c2ccc3c(c2)OCC[C@H]2CN(CC4CCC(OC5CCN(c6ccc([C@@H]7c8ccc(O)cc8CC[C@@H]7c7ccccc7)cc6)CC5)CC4)CCN32)C(=O)N1 (stereo partly drawn) [ER-P-45, (S)-N-((S)-2,6-dioxopiperidin-3-yl)-3-((4-((1-(4-((1R,2S)-6-hydroxy-2-phenyl-1,2,3,4-tetrahydronaphthalen-1-yl)phenyl)piperidin-4-yl)oxy)cyclohexyl)methyl)-2,3,4,4a,5,6-hexahydro-1H-benzo[b]pyrazino[1,2-d][1,4]oxazepine-9-carboxamide] | – | 1630 | -5 | -3 | -15 | -24 | 1.48
COc1c(C(=O)N[C@H]2CCC(=O)NC2=O)ccc2c1OC[C@H]1CN(CC3CCC(OC4CCN(c5ccc([C@@H]6c7ccc(O)cc7CC[C@@H]6c6ccccc6)cc5)CC4)CC3)CCN21 (stereo partly drawn) [ER-P-48, (R)-N-((S)-2,6-dioxopiperidin-3-yl)-3-(((1S,4S)-4-((1-(4-((1R,2S)-6-hydroxy-2-phenyl-1,2,3,4-tetrahydronaphthalen-1-yl)phenyl)piperidin-4-yl)oxy)cyclohexyl)methyl)-7-methoxy-1,2,3,4,4a,5-hexahydrobenzo[b]pyrazi no[1,2-d][1,4]oxazine-8-carboxamide] | – | 7390 | 6 | 0 | 13 | -1 | 115
COc1cc2c(cc1C(=O)N[C@H]1CCC(=O)NC1=O)N(C)C[C@H]1CN(CC3CCC(OC4CCN(c5ccc([C@@H]6c7ccc(O)cc7CC[C@@H]6c6ccccc6)cc5)CC4)CC3)CCN21 (stereo partly drawn) [ER-P-49, (R)-N-((S)-2,6-dioxopiperidin-3-yl)-3-(((1S,4S)-4-((1-(4-((1R,2S)-6-hydroxy-2-phenyl-1,2,3,4-tetrahydronaphthalen-1-yl)phenyl)piperidin-4-yl)oxy)cyclohexyl)methyl)-9-methoxy-6-methyl-2,3,4,4a,5,6-hexahydro-1H-pyrazino[1,2-a]quinoxaline-8-carboxamide] | – | 3730 | -11 | 30 | -12 | 23 | 1.17

Now those with a lower IC50 [2], led by results:

IC50 ([1]; Homo sapiens, T47D, 144 h) [nM] | IC50 [2] [nM] | Degradation rate of ERα in T-47D cells (%) ([3]; 1nM) | Degradation rate of ERα in T-47D cells (%) ([3]; 10nM) | Degradation rate of ERα in MCF-7 cells (%) ([4]; 1nM) | Degradation rate of ERα in MCF-7 cells (%) ([4]; 10nM) | IC50 [1] [nM] | Compound
1.26 | 805 | -29 | 30 | 10 | 39 | – | O=C1CC[C@H](NC(=O)c2ccc3c(c2)OCC[C@H]2CN(CC4CCC(OC5CCN(c6ccc([C@@H]7c8ccc(O)cc8CC[C@@H]7c7ccccc7)cc6)CC5)CC4)CCN32)C(=O)N1 (stereo partly drawn) [ER-P-44, (S)-N-((S)-2,6-dioxopiperidin-3-yl)-3-((4-((1-(4-((1R,2S)-6-hydroxy-2-phenyl-1,2,3,4-tetrahydronaphthalen-1-yl)phenyl)piperidin-4-yl)oxy)cyclohexyl)methyl)-2,3,4,4a,5,6-hexahydro-1H-benzo[b]pyrazino[1,2-d][1,4]oxazepine-9-carboxamide]
– | 731 | 35 | 55 | 6 | 36 | 1.17 | COc1cc2c(cc1C(=O)N[C@H]1CCC(=O)NC1=O)OCC[C@H]1CN(CC3CCC(OC4CCN(c5ccc([C@@H]6c7ccc(O)cc7CC[C@@H]6c6ccccc6)cc5)CC4)CC3)CCN21 (stereo partly drawn) [ER-P-46, (S)-N-((S)-2,6-dioxopiperidin-3-yl)-3-(((1S,4R)-4-((1-(4-((1R,2S)-6-hydroxy-2-phenyl-1,2,3,4-tetrahydronaphthalen-1-yl)phenyl)piperidin-4-yl)oxy)cyclohexyl)methyl)-10-methoxy-2,3,4,4a,5,6-hexahydro-1H-benzo [b]pyrazino[1,2-d][1,4]oxazepine-9-carboxamide]
